Laboratory results: US9169252B2 (BRISTOL-MYERS SQUIBB COMPANY, priority 2014, dated 2015)
Read-outs that look alike come from different tables or passages of the source.

Tests used:
IRAK4 = IRAK4 (Homo sapiens (Human), UniProt Q9NWZ3); assay: IRAK4 Inhibition Assay; assay type: biochemical; conditions: ATP 500 μM, read-out: IRAK4 IC50
Outline: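 Mobility-shift readout: fluorescent substrate and phosphoproduct resolved electrophoretically on Caliper LabChip 3000 after EDTA quench (35 mM). Enzyme reaction of IRAK4, substrates and test compound ran 60 min at room temperature.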

[1] = system: TLR2 induced IL-6 in peripheral blood mononuclear cells (PBMCs); assay: PBMC TLR2 Induced IL-6 Assay; assay type: cell-based, human; conditions: IL-6 by ELISA; for EC50: read-out: Cell EC50; for IC50: read-out: Cell IC50
Outline: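 Lipoteichoic acid at 10 µg/ml served as TLR2 stimulus for 5 hours, following a 30-minute compound pretreatment at 37° C. Cells were Ficoll-isolated human PBMCs, 250000 cells/well, cultured in RPMI plus 10% heat-inactivated FCS.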

[2] = Homo sapiens, PBMC, PBMC TLR2 Induced IL-6 Assay, lipoteichoic acid stimulation
[3] = Homo sapiens, PBMC, human PBMCs, lipoteichoic acid stimulated
[4] = PBMC TLR2 Induced IL-6 Assay, lipoteichoic acid stimulation

Chain of IRAK4 (Q9NWZ3 whole entry, species assumed): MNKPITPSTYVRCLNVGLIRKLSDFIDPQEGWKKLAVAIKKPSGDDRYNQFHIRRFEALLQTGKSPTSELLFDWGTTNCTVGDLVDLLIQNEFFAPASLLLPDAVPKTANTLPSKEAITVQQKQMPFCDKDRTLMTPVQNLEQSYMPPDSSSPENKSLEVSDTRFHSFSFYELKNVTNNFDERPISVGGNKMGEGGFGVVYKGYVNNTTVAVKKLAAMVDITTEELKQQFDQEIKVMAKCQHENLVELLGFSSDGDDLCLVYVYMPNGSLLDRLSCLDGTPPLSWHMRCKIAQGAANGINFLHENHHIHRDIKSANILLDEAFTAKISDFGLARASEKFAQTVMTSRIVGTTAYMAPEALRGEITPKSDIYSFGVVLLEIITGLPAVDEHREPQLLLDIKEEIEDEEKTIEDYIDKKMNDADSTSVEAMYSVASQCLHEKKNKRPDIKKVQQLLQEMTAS

| Compound | IC50 (IRAK4; IRAK4 Inhibition Assay) | EC50 [1, 2] | IC50 (IRAK4; IRAK4 0.6 nM) | other results |
| --- | --- | --- | --- | --- |
| CC(C)(O)CCNC(=O)c1cnc(-n2ccc3cncnc32)cc1NC1CCOCC1 [Example 43, N-(3-hydroxy-3-methylbutyl)-6-(7H-pyrrolo[2,3-d]pyrimidin-7-yl)-4-((tetrahydro-2H-pyran-4-yl)amino)nicotinamide] | 0.006 µM | 0.316 µM | – | – |
| CC(C)(O)[C@H](F)CNC(=O)c1cnc(-n2ncc3cc(C#N)cnc32)cc1NCCCF [Example 595] | – | – | 0.0053 µM | IC50 [1, 3]: 0.129 µM |
| CC(C)Nc1cc(-n2ccc3cc(CNC(=O)CC4CCCCC4)cnc32)ncc1C(=O)NC[C@@H](F)C(C)(C)O [Example 511] | – | – | 0.0054 µM | IC50 [1, 3]: 0.047 µM |
| CC(C)(O)c1cccc(Nc2cc(-n3ccc4cc(C#N)cnc43)ncc2C(=O)NC[C@@H](F)C(C)(C)O)c1 [Example 59, (R)-6-(5-cyano-1H-pyrrolo[2,3-b]pyridin-1-yl)-N-(2-fluoro-3-hydroxy-3-methylbutyl)-4-((3-(2-hydroxypropan-2-yl)phenyl)amino) nicotinamide] | 0.0016 µM | 0.153 µM | – | – |
| CC(C)(O)[C@H](F)CNC(=O)c1cnc(-n2ncc3cc(C#N)cnc32)cc1Nc1cnn(C2COC2)c1 [Example 348] | 0.0018 µM | – | – | IC50 [1, 2]: 0.489 µM |
| CC(C)Nc1cc(-n2ncc3cc(C#N)cnc32)ncc1C(=O)NC1CCN(C(=O)C(C)C)CC1 [Example 273] | 0.0186 µM | – | – | IC50 [1, 2]: 0.094 µM |
| CC(=O)N[C@H]1CC[C@H](NC(=O)c2cnc(-n3ccc4cncnc43)cc2NC2CCOCC2)CC1 [Example 83, N-((trans)-4-acetamidocyclohexyl)-6-(7H-pyrrolo[2,3-d]pyrimidin-7-yl)-4-((tetrahydro-2H-pyran-4-yl)amino)nicotinamide] | 0.0049 µM | 0.443 µM | – | IC50 [1, 2]: 0.777 µM |
| CC(C)(O)[C@H](F)CNC(=O)c1cnc(-n2ccc3cc(C#N)cnc32)cc1NC1CN(S(C)(=O)=O)C1 [Example 476] | – | – | 0.003 µM | EC50 [1, 3]: 0.198 µM |
| CNC(=O)[C@H]1CC[C@H](NC(=O)c2cnc(-n3ncc4cc(C#N)c(N)nc43)cc2N[C@@H]2CCCC[C@H]2F)CC1 [Example 629] | – | – | 0.0033 µM | IC50 [1, 3]: 0.135 µM |
| CC(C)(O)[C@H](F)CNC(=O)c1cnc(-n2ccc3cc(C#N)cnc32)cc1NC1CCCC(CO)C1 (single isomer, unassigned) [Example 445] | – | – | 0.0053 µM | EC50 [1, 3]: 0.108 µM |
| CCn1cc(Nc2cc(-n3ccc4cc(C#N)cnc43)ncc2C(=O)NC[C@@H](F)C(C)(C)O)cn1 [Example 372] | 0.0012 µM | – | – | IC50 [1, 2]: 0.002 µM |
| 6-(5-cyano-1H-pyrrolo[2,3-b]pyridin-1-yl)-N—((S)-2-fluoro-3-hydroxy-3-methylbutyl)-4-((3-fluorotetrahydro-2H-pyran-4-yl)amino) nicotinamide [Example 108] | 0.0035 µM | – | – | EC50 [1, 4]: 0.172 µM |
| CC(C)(O)[C@H](F)CNC(=O)c1cnc(-n2ncc3cc(C#N)cnc32)cc1Nc1ccc2ncsc2c1 [Example 524] | – | – | 0.0026 µM | EC50 [1, 3]: 0.132 µM |
| CC(C)Nc1cc(-n2ncc3cc(C#N)cnc32)ncc1C(=O)NCCN1CCOCC1 [Example 204] | 0.0049 µM | 0.174 µM | – | – |
| CC(C)c1cc(Nc2cc(-n3ncc4cc(C#N)cnc43)ncc2C(=O)NC[C@@H](F)C(C)(C)O)[nH]n1 [Example 406] | – | – | 0.0048 µM | IC50 [1, 3]: 0.066 µM |
| CC(C)Nc1cc(-n2ncc3cc(C#N)cnc32)ncc1C(=O)Nc1ccc(N2CCNCC2)nc1 [Example 227] | 0.0053 µM | 0.055 µM | – | – |
| CC(C)(F)[C@H](F)CNC(=O)c1cnc(-n2cnc3cc(C#N)cnc32)cc1Nc1cnn(CC(F)F)c1 [Example 403] | – | – | 0.0025 µM | IC50 [1, 3]: 0.147 µM |
| CC(C)(O)[C@H](F)CNC(=O)c1cnc(-n2ncc3cc(C#N)cnc32)cc1Nc1cnn(CCC#N)c1 [Example 376] | 0.0021 µM | – | – | IC50 [1, 2]: 0.349 µM |
| CC(C)(O)[C@H](F)CNC(=O)c1cnc(-n2ncc3cc(C#N)cnc32)cc1Nc1cnn(-c2ncccn2)c1 [Example 410] | – | – | 0.0015 µM | EC50 [1, 3]: 0.092 µM |
| COCCn1cc(Nc2cc(-n3ncc4cc(C#N)cnc43)ncc2C(=O)NC[C@@H](F)C(C)(C)O)cn1 [Example 363] | 0.0032 µM | – | – | IC50 [1, 2]: 0.459 µM |
| CC(C)Nc1cc(-n2ncc3cc(C#N)cnc32)ncc1C(=O)N[C@H]1CC[C@H](C(C)(C)O)C1 [Example 244] | 0.0063 µM | 0.259 µM | – | – |

| Compound | IC50 (IRAK4; IRAK4 Inhibition Assay) | EC50 [1, 2] | IC50 (IRAK4; IRAK4 0.6 nM) | other results |
| --- | --- | --- | --- | --- |
| CCNc1cc(-n2ncc3cnc(N)nc32)ncc1C(=O)NC[C@@H](F)C(C)(C)O [Example 580] | – | – | 0.0107 µM | IC50 [1, 3]: 0.487 µM |
| C[C@H](CF)Nc1cc(-n2ccc3cncnc32)ncc1C(=O)NC[C@@H](F)C(C)(C)O [Example 115, N—((R)-2-fluoro-3-hydroxy-3-methylbutyl)-4-(((R)-1-fluoropropan-2-yl)amino)-6-(7H-pyrrolo[2,3-d]pyrimidin-7-yl)nicotinamide] | 0.0033 µM | 0.082 µM | – | – |
| CC(C)Nc1cc(-n2ncc3cc(C#N)cnc32)ncc1C(=O)NCCc1ccc(F)cc1 [Example 260] | 0.0033 µM | – | – | IC50 [1, 2]: 0.159 µM |
| CC(C)(O)[C@H](F)CNC(=O)c1cnc(-n2ncc3cc(C#N)cnc32)cc1NCC1CC1 [Example 605] | – | – | 0.0075 µM | IC50 [1, 3]: 0.165 µM |
| CC(C)Nc1cc(-n2ncc3cc(Br)cnc32)ncc1C(=O)NC[C@@H](F)C(C)(C)O [Example 158, (R)-6-(5-Bromo-1H-pyrazolo[3,4-b]pyridin-1-yl)-N-(2-fluoro-3-hydroxy-3-methylbutyl)-4-(isopropylamino)nicotinamide] | 0.0042 µM | 0.127 µM | – | – |
| CC(C)(O)[C@H](F)CNC(=O)c1cnc(-n2ncc3cc(C#N)cnc32)cc1NC1CCN(c2ccccc2)CC1 [Example 535] | – | – | 0.004 µM | EC50 [1, 3]: 0.185 µM |
| CC(C)Nc1cc(-n2ncc3cc(C#N)cnc32)ncc1C(=O)NCC(F)C1CCOCC1 (centres unmarked) [Example 329] | 0.0049 µM | – | – | IC50 [1, 2]: 0.076 µM |
| CC(C)Nc1cc(-n2ccc3cc(CNC(=O)CC(C)(C)C)cnc32)ncc1C(=O)NC[C@@H](F)C(C)(C)O [Example 519] | – | – | 0.0027 µM | IC50 [1, 3]: 0.126 µM |
| CS[C@H]1CC[C@H](NC(=O)c2cnc(-n3ccc4cc(C#N)cnc43)cc2NC(C)C)CC1 [Example 101, 6-(5-Cyano-1H-pyrrolo[2,3-b]pyridin-1-yl)-4-(isopropylamino)-N-((trans)-4-(methylthio)cyclohexyl)nicotinamide] | 0.0078 µM | 0.112 µM | – | – |
| C[C@@H](F)CNc1cc(-n2ncc3cc(C#N)c(N)nc32)ncc1C(=O)NC[C@@H](F)C(C)(C)O [Example 591] | – | – | 0.0027 µM | IC50 [1, 3]: 0.16 µM |
| C[C@@H](Nc1cc(-n2ccc3cc(C#N)cnc32)ncc1C(=O)NC[C@@H](F)C(C)(C)O)C1CC1 [Example 450] | – | – | 0.0028 µM | EC50 [1, 3]: 0.268 µM; IC50 [1, 3]: 0.438 µM |
| CNC(=O)[C@H]1CC[C@H](NC(=O)c2cnc(-n3ccc4cncnc43)cc2NC(C)C)CC1 [Example 81, 4-(isopropylamino)-N-((trans)-4-(methylcarbamoyl)cyclohexyl)-6-(7H-pyrrolo[2,3-d]pyrimidin-7-yl)nicotinamide] | 0.0142 µM | 0.121 µM | – | IC50 [1, 2]: 0.565 µM |
| CC(C)Nc1cc(-n2ncc3cc(C#N)c(N)nc32)ncc1C(=O)NC1(C#N)CC1 [Example 325] | 0.006 µM | – | – | IC50 [1, 2]: 0.227 µM |
| CC(C)(O)[C@H](F)CNC(=O)c1cnc(-n2ncc3cc(C#N)cnc32)cc1NCCNC(=O)OC(C)(C)C(F)(F)F [Example 587] | – | – | 0.0138 µM | IC50 [1, 3]: 0.298 µM |
| CNC(=O)[C@H]1CC[C@H](NC(=O)c2cnc(-n3ccc4cc(C#N)ccc43)cc2NC(C)C)CC1 [Example 79, 6-(5-Cyano-1H-indol-1-yl)-4-(isopropylamino)-N-((trans)-4-(methylcarbamoyl)cyclohexyl)nicotinamide] | 0.0116 µM | 0.436 µM | – | IC50 [1, 2]: 0.436 µM |
| CC(C)(O)[C@H](F)CNC(=O)c1cnc(-n2ncc3cc(C#N)cnc32)cc1NC1CCCOC1 (single isomer, unassigned) [Example 142] | 0.0114 µM | 0.354 µM | – | – |
| CC(C)Nc1cc(-n2ccc3cc(C#N)cnc32)ncc1C(=O)NC[C@@H](F)C(C)NC(C)C (single isomer, unassigned) [Example 130] | 0.0023 µM | – | – | EC50 [1, 4]: 0.099 µM |
| CC(C)(O)[C@H](F)CNC(=O)c1cnc(-n2ccc3cc(C#N)cnc32)cc1Nc1cnn(CC(F)(F)F)c1 [Example 371] | 0.0021 µM | – | – | IC50 [1, 2]: 0.045 µM |
| CC(C)(O)[C@H](F)CNC(=O)c1cnc(-n2ccc3cc(C#N)cnc32)cc1N[C@H]1CC[C@@](C)(O)CC1 [Example 61, 6-(5-cyano-1H-pyrrolo[2,3-b]pyridin-1-yl)-N—((R)-2-fluoro-3-hydroxy-3-methylbutyl)-4-(((1s,4S)-4-hydroxy-4-methylcyclohexyl)amino)nicotinamide] | 0.0013 µM | 0.034 µM | – | – |
| CC(C)Nc1cc(-n2ccc3cc(C#N)cnc32)ncc1C(=O)NC[C@H](F)C(C)(C)O [Example 23, (S)-6-(5-cyano-1H-pyrrolo[2,3-b]pyridin-1-yl)-N-(2-fluoro-3-hydroxy-3-methylbutyl)-4-(isopropylamino)nicotinamide] | 0.0026 µM | 0.11 µM | – | – |
| CS(=O)(=O)NCCNC(=O)c1cnc(-n2ccc3cc(C#N)cnc32)cc1NC1CC1 [Example 453] | – | – | 0.0044 µM | EC50 [1, 3]: 0.213 µM; IC50 [1, 3]: 0.326 µM |
